Data: patent US20050227956A1, “Control of mold growth on wood” (priority 2004, published 2005)

Assays:
Aspergillus niger = test: Six-well plate screening test; format: cell-based; settings: for Minimum Inhibitory Concentrations (MIC): 10 days of incubation at room temperature
Aureobasidium pullulans = test: Six-well plate screening test; format: cell-based; settings: for Minimum Inhibitory Concentrations (MIC): 10 days of incubation at room temperature
[1] = tested on: Cladosporium cladosporioides; test: Six-well plate screening test; format: cell-based; settings: for Minimum Inhibitory Concentrations (MIC): 10 days of incubation at room temperature
Penicillium funiculosum = test: Six-well plate screening test; format: cell-based; settings: for Minimum Inhibitory Concentrations (MIC): 10 days of incubation at room temperature
Alternaria alternata = test: Six-well plate screening test; format: cell-based; settings: for Minimum Inhibitory Concentrations (MIC): 10 days of incubation at room temperature
Trichoderma virens = test: Six-well plate screening test; format: cell-based; settings: for Minimum Inhibitory Concentrations (MIC): 10 days of incubation at room temperature
Stachybotrus charatrum = test: Six-well plate screening test; format: cell-based
Mold from ACQ wood = test: Six-well plate screening test; format: cell-based, cephalosporium; settings: 10 days of incubation at room temperature
[2] = tested on: Alternaria alternata, Aspergillus niger, Aureobasidium pullulans, Cladosporium cladosporioides, Cephalosporium sp. (DR 423); test: Wood panel test method; parameters: species or system mixed spore suspension of mold; settings: compositions with the single moldicide at 40 mg/kg
Method: The wood panel specimens were approximately 5×3 inches (12.7×7.6 cm)×board thickness. There were seven replicates per treatment. The wood panels were conditioned at approximately 80° F. (27° C.) and 80% relative humidity for one week prior to mold inoculation. The wood panels were supported on a screen above a layer of water in a sealed plastic box for 8 weeks at approximately 80° F. (27° C.) and 100% relative humidity.
Mold and stain fungi used for inoculum were Alternaria alternata, Aspergillus niger, Aureobasidium pullulans, Cladosporium cladosporioides, and an additional mold isolated from ACQ-treated wood from Georgia Pacific (October 2002, tentatively identified as Cephalosporium sp. (DR 423).
Each inoculum was produced from fully colonized, 2% malt agar in 100 mm petri plates, by washing spores with 10 mL distilled water plus 10 mL rinse (20 mL inoculum were produced per plate). The panels were inoculated by spraying with mixed spore suspension of mold on the surface to be evaluated; approx. 2-3 mL of inoculum were applied per panel. The panel surfaces were lightly misted with distilled water once per week during the evaluation test to maintain optimum conditions for mold colonization in the chambers. Two evaluation ratings were made weekly for 8 weeks; using a scale of 0 (no coverage by mold) to 10 (total coverage by mold). […]

[3] = single moldicide or ACQ-C alone, incubation period 14 days
[4] = single moldicide, incubation period 21 days

Structure (SMILES) | Minimum Inhibitory Concentrations (MIC) (Aspergillus niger) [mg/kg] | MIC (Aspergillus niger; [3]) [mg/kg] | Minimum Inhibitory Concentrations (MIC) (Aureobasidium pullulans) [mg/kg] | MIC (Aureobasidium pullulans; [3]) [mg/kg] | Minimum Inhibitory Concentrations (MIC) [1] [mg/kg] | MIC [1, 3] [mg/kg] | Minimum Inhibitory Concentrations (MIC) (Penicillium funiculosum) [mg/kg] | MIC (Penicillium funiculosum; [3]) [mg/kg] | Minimum Inhibitory Concentrations (MIC) (Alternaria alternata) [mg/kg] | MIC (Alternaria alternata; [3]) [mg/kg] | Minimum Inhibitory Concentrations (MIC) (Trichoderma virens) [mg/kg] | MIC (Trichoderma virens; [3]) [mg/kg] | Minimum Inhibitory Concentrations (MIC) (Mold from ACQ wood) [mg/kg] | potential to control mold growth [2] | further results
CCCC1COC(Cn2cncn2)(c2ccc(Cl)cc2Cl)O1 (stereo not drawn) [Propiconazole, cis-trans-1-[2-(2,4-dichlorophenyl)-4-propyl-1,3-dioxolan-2-ylmethyl]-1H-1,2,4-triazole] | 10 | 25 | 1 | 0.8 | 1 | 3.1 | 100 | >100 | >100 | 100 | 10 | 6.2 | 10 | good potential to control mold growth | MIC (Aspergillus niger; [4]): 25 mg/kg; MIC (Aureobasidium pullulans; [4]): 0.8 mg/kg; MIC [1, 4]: 3.1 mg/kg; MIC (Penicillium funiculosum; [4]): >100 mg/kg; MIC (Alternaria alternata; [4]): 100 mg/kg; MIC (Trichoderma virens; [4]): 12.5 mg/kg; MIC (Stachybotrus charatrum; [3]): 25 mg/kg; MIC (Stachybotrus charatrum; [4]): 25 mg/kg
CC(C)(C)C(O)(CCc1ccc(Cl)cc1)Cn1cncn1 (racemic) [Tebuconazole, (RS)-1-p-chlorophenyl4,4-dimethyl-3-(1H-1,2,4-triazol-1-ylmethyl)pentan-3-ol] | 10 | 10 | 10 | 10 | 10 | 10 | >10 | >10 | 100 | 100 | >10 | >10 | >100 | good potential to control mold growth | –
